Assay results: publication doi:10.1101/2024.10.11.617762v1 (biorxiv, 2024)

Assays:
[1] = target: T1, N-CTD (C-terminal domain of the SARS-CoV-2 nucleocapsid (N) protein) (Severe acute respiratory syndrome coronavirus 2, UniProt P0DTC9); test: biochemical; format: binding
[2] = target: T1, N-CTD (C-terminal domain of the SARS-CoV-2 nucleocapsid (N) protein); test: fluorescence intensity inhibition of FAM-RNA binding; format: biochemical

SMILES: CC1(C)S[C@@H]2[C@H](NC(=O)[C@H](N)c3ccccc3)C(=O)N2[C@H]1C(=O)O [ampicillin]
- Kd [1]: 28 ± 1.2 µM
- IC50 [2]: 10.4 ± 0.2 µM

SMILES: CO/N=C(\C(=O)N[C@@H]1C(=O)N2C(C(=O)O)=C(CSc3nc(=O)c(=O)[nH]n3C)CS[C@H]12)c1csc(N)n1 [ceftriaxone]
- Kd [1]: 18 ± 1.3 µM
- IC50 [2]: 12.4 ± 2.4 µM

SMILES: CO/N=C(\C(=O)N[C@@H]1C(=O)N2C(C(=O)O)=C(COC(N)=O)CS[C@H]12)c1ccco1 [cefuroxime]
- Kd [1]: 55 ± 4.2 µM
- IC50 [2]: 15.4 ± 2.8 µM
